“Also recorded” adds a separate entry of the source. Where two headings read alike, the source gives them in different places.
Tests used:
[1] = tested on: 23 kDa heat shock protein gene promoter (hsp23-β-galactosidase hybrid gene); assay: Drosophila heat shock hybrid gene expression assay (colorimetric beta-galactosidase assay) in primary embryonic cells from transformed flies; settings: for FOLD INDUCTION OF B-GAL ACTIVITY: Experiment I, strain 700.2 embryonic cells, relative to nontreated cells
Source text: A representative hybrid gene in accordance with the above description includes a 23 kDa heat shock protein gene fragment beginning at the Pst I site 1.5 kb upstream from and extending through the transcription start site and the entire RNA leader region to a Pvu II site at codon 45 of the 23 kDa protein coding sequence, inserted upstream from a truncated (at codon 7 or 8) E. coli β-galactosidase gene. It addition, a 2.4-kb-long segment containing 3' nontranslated and nontranscribed sequences from a D. melanogaster 70 kDa heat shock protein gene is placed downstream from the β-galactosidase gene.
For the experiments with teratogens described below, only the 700 lines (see Table 2) were used. These lines carry a hybrid gene controlled by a 554 nucleotide-long segment of the 23 kDa heat shock protein gene promoter.
Preparation of embryos, cultures of primary cells, and incubation with teratogens
1. A creamy paste of yeast is placed on a piece of wet filter paper and such coated paper: deposited on 150 mm food plates. Embryos are then collected on these plates for 3 hours (inside a large fly cage). (For additional details, see the appended Materials and Methods section.)
2. The plates with the embryos are incubated further for 3.5 hours (embryos will reach the gastrulation stage).
3. The filter paper containing yeast is discarded. The plates are flooded with water, the embryos are brushed down, passed through a 1 mm (pore size) mesh and then collected on a 90 μm mesh.
4. Embryos are washed extensively with water. Subsequently they are picked up with a spatula and are placed into a solution of 10 ml chlorox/10 ml ethanol (95%). After a brief incubation, the embryos are transferred to a sintered glass funnel attached to a vacuum line and are washed with several volumes of sterile distilled water, No more than 2 minutes should elapse between the first exposure of the embryos to chlorox-ethanol solution and the beginning of the wash steps.
5. The embryos are then washed in 6 ml of culture medium. It is important to note that the embryos are not allowed to dry out during the wash procedure.
6. The wet embryos are transferred with a blunt spatula into a homogenizer containing 7 ml of culture medium. (Alternatively, they can be washed down into the homogenizer with medium.)
7. Three gentle passes are made with the loose fitting pestle.
8. Cell aggregates are broken up by repeated pipetting with a 1 ml pipette, and the cell suspension is passed through a 53 μm mesh.
9. The filtrate is collected in a 15 ml sterile disposable centrifuge tube and spun at 1800 rpm for 4 minutes (at room temperature).
10. The supernatant is decanted, and the cells are washed once more with 4 ml of medium.
11. The cells are finally suspended in 4 ml medium by repeated pipetting with a 1 ml pipette and are counted on a hemocytometer.
12. The cells are plated in 35 mm dishes at a density of 3.2×10^6cells per 2 ml of medium.
13. Forty-five minutes later the medium is removed from each dish, and 2 ml of fresh medium containing the chemical to be tested for teratogenicity is added. The culture is then incubated at 22° C. for 20 hrs. […] The cells are subsequently processed for the β-galactosidase assay (see below).
1. Cells in 35 mm dishes are washed once with phosphate-buffered saline and are then transferred to 15 ml centrifuge tubes.
2. The cells are collected by centrifugation (clinical centrifuge, 2000 rpm, 5 min) and are taken up in 350 μl of Z buffer (defined below) containing 0.5% of Nonidet NP40. The cells are lysed by repeated pipetting. Lysates are transferred to 1.5 ml Eppendorf tubes.
3. After a 5 minute spin (in the Eppendorf centrifuge) the supernatants are transferred to another set of tubes.
4. To 200 μl of this extract, 275 μl of substrate solution ONPG (4 mg/ml) in Z-buffer is added. The assays are run with straight as well as with diluted extract samples.
5. The reactions are incubated at 37° C. for 30 min.

[2] = shown in animal experiments; cited from earlier work
[3] = tested on: 23 kDa heat shock protein gene promoter (hsp23-β-galactosidase hybrid gene) in S3 cells; assay: Hybrid gene (23 kDa heat shock protein-β-galactosidase) activity in transfected S3 cells; assay type: cell-based, Drosophila melanogaster; settings: for E. coli-specific B-galactosidase, + ecdysterone: 3 μM, ELISA
Source text: The Drosophila melanogaster 23 kDa heat shock protein gene has been cloned and characterized by Voellmy et al. (Cell 23:261-270, 1981). Segments containing extensive 5' nontranscribed sequences from the 23 kDa heat shock protein gene, the RNA leader region, and part of the protein-coding region were linked in frame to an E. coli β-galactosidase gene. The resulting constructs encode a hybrid protein with β-galactosidase activity that is made under the control of the linked heat shock gene sequences (Lawson, R., et al., Dev. Biol. […], 1985). These constructs were introduced into Drosophila melanogaster S3 cells (an established cell line) by transfection (Lawson, R., et al., Mol. Gen. Genet. 198:116-124, 1984).
The construction of 23 kDa heat shock protein-β-galactosidase hybrid genes had been described (Lawson, R., et al., Dev. Biol. 110:321-330, 1985). The structure of a representative construct, p523/35, is shown in FIG. 4 (modified from Mestril, R., et al., EMBO J. 5(7):1667-1673, 1986). […] Hybrid gene activity was assessed in cell extracts both by a colorimetric enzymatic assay and by ELISA using antibodies specific for E. coli β-galactosidase (Lawson, R., et al., Dev. Biol. 110:321-330, 1985).
Derivatives of this basic construct that contained 23 kDa heat shock gene promoter sequences of different lengths were prepared, and their activity was tested using heat shock in transfected S3 cells (Mestril, R., et al., EMBO J. 4:2971-2976, Mestril, R., et al., EMBO J. 5:1667-1673, 1986).
A list of the cp20.1 derivatives of hybrid genes with 23 kDA heat shock protein gene promoter segments of different lengths is shown in Table 1. The functionality of the genes was tested in cultured Drosophila melanogaster S3 cells. Transfected cells were either heat-treated (not shown), exposed for one day at 3 μM ecdysterone, or not treated. Levels of β-galactosidase in extracts were measured by the ELISA procedure described in Mestril et al., EMBO J. 5:1667-1673, 1986.
Levels of Bgalactosidase were measured in cell extracts using the ELISA
protocol described in Mestril et al., 1986 (Mestril,R., Schiller,P.,
Amin,J., Klapper,H., Ananthan,J. and Voellmy,R. (1986) EMBO J.

[4] = tested on: 23 kDa heat shock protein gene promoter (hsp23-β-galactosidase hybrid gene) in S3 cells; settings: following exposure to ecdysterone; Lawson et al. 1985; Mestril et al.; cited from earlier work
small heat shock genes = settings: ecdysterone added to the medium; Ireland et al. 1982; cited from earlier work
[5] = use by pregnant women; cited from earlier work
[6] = Drosophila melanogaster, 20 h, read-out: FOLD INDUCTION OF B-GAL ACTIVITY
[7] = Drosophila melanogaster, 20 h, read-out: Fold Induction of B-Gal Activity

Work on `CC1=C(/C=C/C(C)=C/C=C/C(C)=C/C(=O)O)C(C)(C)CCC1` [RETINOIC ACID (ALL TRANS)] yielded a fold induction at 50 µM [1, 6] of 5.

With `CCO` [ETHYL ALCOHOL] the fold induction at 160000 µM [1, 6] was 1.2.

In the case of `CC(=O)[C@H]1CC[C@H]2[C@@H]3CCC4=CC(=O)CC[C@]4(C)[C@H]3CC[C@]12C` [PROGESTERONE], the fold induction at 10 µM [1, 6] was 1.

For `CC(=O)Oc1ccccc1C(=O)O` [ACETYL SALICYCLIC ACID], the “CLASS (teratogen T / nonteratogen NT)” value [2] is listed as “weak T” and the “FOLD INDUCTION OF B-GAL ACTIVITY” value ([1]; 1.0 mM, 20 hrs) is listed as 1.5 FOLD.

In the case of `[Cl][Cd][Cl]` [Cd Cl2], the “FOLD INDUCTION OF B-GAL ACTIVITY” value ([1]; 0.25 mM, 20 hrs) was 7 FOLD.

With `C[S+](C)[O-]` [DIMETHYL SULFOXIDE] the fold induction at 1000 µM [1, 6] was 1.

In the case of `O=[As](O)(O)O` [ARSENATE], the “FOLD INDUCTION OF B-GAL ACTIVITY” value ([1]; 0.2 mM, 20 hrs) was 8 FOLD.

In the case of `O=c1ccc2ccccc2o1` [COUMARIN], the “hybrid gene activity in S3 cells (in words)” value [3] was “did not induce hybrid gene activity” and the fold induction at 1000 µM [1, 6] was 5.

With `O=C1NC(=O)C(c2ccccc2)(c2ccccc2)N1` [DIPHENYLHYDANTOIN, DIPHENYL-HYDANTOIN] the fold induction at 100 µM [1, 6] was 2.

In the case of `CN1C(=O)CN=C(c2ccccc2)c2cc(Cl)ccc21` [Valium], the fold induction at 1000 µM [1, 7] was 6.5.

In the case of `[Cl][Hg][Cl]` [Hg Cl2], the “FOLD INDUCTION OF B-GAL ACTIVITY” value ([1]; 0.005 mM, 20 hrs) was 3 FOLD.

In the case of `[Pb]` [Lead], the “Fold Induction of B-Gal Activity” value ([1]; Experiment II, 2.5 mM, 20 hrs, relative to nontreated cells (see Table 3)) was 15.78 Fold and the “synthesis of β-galactosidase in primary embryonic cells (in words)” value ([1]; primary embryonic cells from transformed flies) was “directs the synthesis of β-galactosidase”.

Compound `CC/C(=C(/CC)c1ccc(O)cc1)c1ccc(O)cc1` [DIETHYL STILBOSTEROL] has a fold induction at 10 µM [1, 6] of 7.

In the case of `Cn1c(=O)c2c(ncn2C)n(C)c1=O` [Caffeine], the fold induction at 1000 µM [1, 7] was 1.02.

For `CC(C)(O)CC[C@@H](O)[C@](C)(O)[C@H]1CC[C@@]2(O)C3=CC(=O)[C@@H]4C[C@@H](O)[C@@H](O)C[C@]4(C)[C@H]3CC[C@]12C` [ecdysterone], the “E. coli-specific B-galactosidase, + ecdysterone” value (“E. coli-specific B-galactosidase” below) ([3]; 63 bp 5' nontranscribed segment, one day, 0.0 without ecdysterone) was 0.1, the “E. coli-specific B-galactosidase” value ([3]; 147 bp 5' nontranscribed segment, one day) was 0.1 and the “E. coli-specific B-galactosidase” value ([3]; 197 bp 5' nontranscribed segment, one day) was 0.1. The “E. coli-specific B-galactosidase” value ([3]; 275 bp 5' nontranscribed segment, one day) was 0.3, the “E. coli-specific B-galactosidase” value ([3]; 295 bp 5' nontranscribed segment, one day) was 0.6 and the “E. coli-specific B-galactosidase” value ([3]; 333 bp 5' nontranscribed segment, one day, 0.0 without ecdysterone) was 1.0. For the same compound, the “E. coli-specific B-galactosidase” value ([3]; 363 bp 5' nontranscribed segment, one day) was 1.1, the “E. coli-specific B-galactosidase” value ([3]; 379 bp 5' nontranscribed segment, one day, 0.1 without ecdysterone) was 2.0 and the “E. coli-specific B-galactosidase” value ([3]; 554 bp 5' nontranscribed segment, one day) was 1.0. The “hybrid gene activity of constructs (in words)” value ([3]; several constructs, longest promoter segments, 3 μM ecdysterone, one day, inactive in untreated cells) was “active”, the “synthesis of β-galactosidase in transfected S3 cells (in words)” value [4] was “produced E. coli-specific β-galactosidase; also recorded: directed the synthesis of β-galactosidase” and the fold induction at 10 µM [1, 6] was 2. For the same compound, the “activation of the small heat shock genes (in words)” value (small heat shock genes) was “activation of the genes”.

For `Nc1ncn([C@H]2C[C@H](O)[C@@H](CO)O2)c(=O)n1` [5-DEOXY-2' AZACYTIDINE], the “FOLD INDUCTION OF B-GAL ACTIVITY” value ([1]; 0.01 mM, 20 hrs) was 4 FOLD.

In the case of `O=C1CCC(N2C(=O)c3ccccc3C2=O)C(=O)N1` (stereo not shown) [Thalidomide], the “babies suffering from phocomelia” value [5] is listed as ~10,000 babies, the “synthesis of β-galactosidase in primary embryonic cells (in words)” value [1] is listed as “directs the synthesis of β-galactosidase” and the fold induction at 1000 µM [1, 7] is listed as 2.73.

Reference: US5346812A, “Teratogen assay” (priority 1992, dated 1994)
